Measurements taken from patent US20240238426A1, “PROTEIN ACYLATION MODULATION BY HETEROBIFUNCTIONAL MOLECULES” (THE SCRIPPS RESEARCH INSTITUTE, priority 2021, published 2024).

How the values were obtained:
H3.3-FKBP12^F36V = molecular target: T1, H3.3-FKBP12^F36V (Homo sapiens, UniProt P62942+Q09472, F37V); assay: Quantitative proteomic (TMT MS) analysis of H3.3 acetylation; type: cell-based; settings: 625 nM AceTAG-1 vs DMSO, FIG. 5A
T1 construct: expressed in transfected cells
Experimental: Sample preparation: Cells were split in 10 cm dishes in indicated media. The probes were added once the cells grew to 60%-70% confluency and incubated for indicated time. The cells were harvested and washed with cold DPBS twice. The pelleted cells were lysed in 1 mL lysis buffer, containing 10 mM Tris pH 7.5, 300 mM NaCl, 0.1% (v/v) NP40, 5 mM sodium butyrate, 20 mM Nicotinamide, and 1X Halt Protease Inhibitor, followed by centrifuging for 5 min at 1,000 g at 4° C. The pellets were resuspended in benzonase buffer, containing 50 mM Tris pH 7.5, 300 mM NaCl, 0.5% NP40, and 2.5 mM MgCl2. Protein concentration was normalized by DC Protein Assay (Bio-Rad) and equal amount of protein was subjected to 50 U/100 ml benzonase nuclease (Millipore Sigma) treatment.
Samples with benzonase were incubated on ice for 30 min and centrifuged at 300 g for 3 min at 4° C. to obtain soluble chromatin fraction. Samples were diluted with dilution buffer, containing 50 mM Tris pH 7.5, 300 mM NaCl, 0.5% NP40, and 15 mM EDTA to quench the benzonase activity. Protein concentration was normalized again by DC Protein Assay (Bio-Rad) and equal amount of protein was used for HA-tag protein enrichment as described above. The beads were washed with lysis buffer and DPBS and incubated with 8 M urea and boiled in 4X SDS gel loading buffer at 95° C. for 15 min. […]

[1] = tested on: T2, FKBP12^F36V-RelA (Homo sapiens, F37V); assay: Immunoblot analysis of FKBP12^F36V-RelA acetylation in RelA-/- HeLa cells; type: cell-based
T2 construct: expressed in transfected cells
Experimental: Lentivirus Production and Transduction: Lentiviral production was performed using HEK293T cells, which were co-transfected with pMD2.G (Addgene, #12259), psPAX2 (Addgene, #12260), and AceTAG lentiviral plasmids using PEI (Polysciences Inc). Viral particles were collected 72 h after transfection and filtered through a […] membrane. A range of dilutions of the lentivirus in DMEM complete and 10 μg/mL polybrene were added to HeLa, H1299, or HeLa RelA KO cell lines. Transduced cells were selected with 1 μg/mL or 2 μg/mL puromycin.
Immunoblotting: Cells were harvested in cold DPBS by scraping and washed with cold DPBS twice. Cell pellets were resuspended in DPBS supplemented with 5 mM sodium butyrate, 20 mM Nicotinamide, and 1X Halt Protease Inhibitor Cocktail and lysed by sonication (15 ms on, 40 ms off, 15% amplitude, 1s total on x 3). Protein concentration was determined using DC Protein Assay (Bio-Rad) and absorbance read using a CLARIOstar plate reader following manufacturer's instructions. Samples with equal protein content were boiled in 4X SDS gel loading buffer for 10 min. Proteins were separated by 10%, 12.5%, or 15% SDS-polyacrylamide gel electrophoresis and transferred to PVDF membranes using Trans-Blot Turbo RTA Mini […] LF PVDF Transfer Kit (Bio-Rad). Membranes were incubated for 1 h at room temperature with blocking buffer, followed by incubating overnight at 4° C. with primary antibodies. After washing in TBST, the secondary antibodies were incubated with the membranes at room temperature for 1 h. The membranes were washed with TBST for three times and visualized on a Bio-Rad ChemiDoc MP Imaging System with Clarity Max Western ECL substrate (Bio-Rad) or SuperSignal West Femto Chemiluminescent substrate proprietary luminol and peroxide solution kit (Thermo Scientific Pierce).

T2 sequence (P62942 2-108 F37V limits assumed): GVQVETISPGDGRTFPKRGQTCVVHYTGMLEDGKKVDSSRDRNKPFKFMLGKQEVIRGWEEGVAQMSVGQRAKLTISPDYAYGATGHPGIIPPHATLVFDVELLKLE
T2 sequence (Q09472 2-2414 limits assumed, stated change not applied, further chain): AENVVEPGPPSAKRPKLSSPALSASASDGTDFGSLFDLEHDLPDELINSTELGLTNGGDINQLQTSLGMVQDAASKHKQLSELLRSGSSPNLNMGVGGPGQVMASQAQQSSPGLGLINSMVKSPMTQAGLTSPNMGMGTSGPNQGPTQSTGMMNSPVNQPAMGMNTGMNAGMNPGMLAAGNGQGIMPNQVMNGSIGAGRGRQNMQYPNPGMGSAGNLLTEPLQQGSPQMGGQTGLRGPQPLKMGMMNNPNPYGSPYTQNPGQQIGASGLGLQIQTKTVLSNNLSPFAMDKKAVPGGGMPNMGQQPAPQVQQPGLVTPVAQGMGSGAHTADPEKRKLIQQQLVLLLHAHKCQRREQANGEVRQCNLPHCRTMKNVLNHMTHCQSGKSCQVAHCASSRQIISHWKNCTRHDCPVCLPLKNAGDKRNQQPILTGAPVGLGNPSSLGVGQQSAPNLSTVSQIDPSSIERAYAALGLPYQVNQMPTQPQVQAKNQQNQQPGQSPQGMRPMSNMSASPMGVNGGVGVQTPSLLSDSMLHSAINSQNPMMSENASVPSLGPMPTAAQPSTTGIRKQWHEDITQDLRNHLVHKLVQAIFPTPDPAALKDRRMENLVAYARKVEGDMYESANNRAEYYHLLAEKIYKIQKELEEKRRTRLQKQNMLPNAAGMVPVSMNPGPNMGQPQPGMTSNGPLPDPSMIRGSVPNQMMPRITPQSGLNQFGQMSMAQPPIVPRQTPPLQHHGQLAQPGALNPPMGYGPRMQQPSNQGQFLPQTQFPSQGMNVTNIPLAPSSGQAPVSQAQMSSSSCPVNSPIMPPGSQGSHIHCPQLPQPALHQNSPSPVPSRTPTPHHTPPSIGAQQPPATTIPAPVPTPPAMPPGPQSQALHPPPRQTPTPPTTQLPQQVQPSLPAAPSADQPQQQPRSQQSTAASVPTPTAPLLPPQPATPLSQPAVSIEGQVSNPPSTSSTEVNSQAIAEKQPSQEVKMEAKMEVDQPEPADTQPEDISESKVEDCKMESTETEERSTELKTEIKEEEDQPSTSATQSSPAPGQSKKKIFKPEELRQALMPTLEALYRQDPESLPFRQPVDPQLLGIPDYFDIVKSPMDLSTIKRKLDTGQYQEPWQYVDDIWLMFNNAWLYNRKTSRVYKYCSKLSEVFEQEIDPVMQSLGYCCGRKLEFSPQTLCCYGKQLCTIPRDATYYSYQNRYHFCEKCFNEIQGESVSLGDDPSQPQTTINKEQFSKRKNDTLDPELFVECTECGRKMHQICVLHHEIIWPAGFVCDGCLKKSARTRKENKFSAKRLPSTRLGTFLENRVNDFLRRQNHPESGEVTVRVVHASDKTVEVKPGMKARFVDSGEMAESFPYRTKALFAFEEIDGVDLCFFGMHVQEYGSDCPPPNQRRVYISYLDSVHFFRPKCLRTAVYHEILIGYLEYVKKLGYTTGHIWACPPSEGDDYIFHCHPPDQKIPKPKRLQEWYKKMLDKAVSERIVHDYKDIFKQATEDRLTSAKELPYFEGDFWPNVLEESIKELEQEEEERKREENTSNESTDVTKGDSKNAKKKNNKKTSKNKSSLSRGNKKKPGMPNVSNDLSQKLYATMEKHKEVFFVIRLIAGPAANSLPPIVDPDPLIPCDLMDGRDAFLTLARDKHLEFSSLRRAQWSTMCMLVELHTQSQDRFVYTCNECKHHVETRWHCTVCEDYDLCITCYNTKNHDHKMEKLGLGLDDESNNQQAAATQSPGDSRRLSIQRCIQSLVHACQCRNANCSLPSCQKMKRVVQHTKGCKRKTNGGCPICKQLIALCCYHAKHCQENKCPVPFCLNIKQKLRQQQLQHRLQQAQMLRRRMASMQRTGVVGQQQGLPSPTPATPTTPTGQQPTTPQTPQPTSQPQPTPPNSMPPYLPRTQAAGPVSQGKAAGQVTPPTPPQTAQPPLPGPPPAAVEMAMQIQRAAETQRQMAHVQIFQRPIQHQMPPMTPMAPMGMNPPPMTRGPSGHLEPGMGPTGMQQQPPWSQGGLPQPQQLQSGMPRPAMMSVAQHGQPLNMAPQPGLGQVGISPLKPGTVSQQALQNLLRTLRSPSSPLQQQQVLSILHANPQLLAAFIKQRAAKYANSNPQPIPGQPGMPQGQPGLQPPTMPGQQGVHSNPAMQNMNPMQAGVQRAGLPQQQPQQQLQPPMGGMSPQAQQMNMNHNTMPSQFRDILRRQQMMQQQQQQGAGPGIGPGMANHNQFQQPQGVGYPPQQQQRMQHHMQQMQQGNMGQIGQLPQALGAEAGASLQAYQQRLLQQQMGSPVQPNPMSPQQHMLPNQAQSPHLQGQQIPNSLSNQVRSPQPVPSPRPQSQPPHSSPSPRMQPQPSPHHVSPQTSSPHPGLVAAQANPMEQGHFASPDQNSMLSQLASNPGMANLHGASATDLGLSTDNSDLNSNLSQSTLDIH
T1 sequence (P62942 2-108 F37V limits assumed): as the sequence (P62942 2-108 F37V limits assumed) above
T1 sequence (Q09472 2-2414 limits assumed, stated change not applied): as the sequence (Q09472 2-2414 limits assumed, stated change not applied, further chain) above

`CC[C@H](C(=O)N1CCCC[C@H]1C(=O)O[C@H](CCc1ccc(OC)c(OC)c1)c1cccc(OCC(=O)NCCOCCOCCC(=O)NCCOc2ccc(CCc3nc4cc(-c5c(C)noc5C)ccc4n3CCN3CCOCC3)cc2)c1)c1cc(OC)c(OC)c(OC)c1` [AceTAG-1, (R)-3-(3,4-dimethoxyphenyl)-1-(3-((15-(4-(2-(5-(3,5-dimethylisoxazol-4-yl)-1-(2-morpholinoethyl)-1H-benzo[d]imidazol-2-yl)ethyl)phenoxy)-2,12-dioxo-6,9-dioxa-3,13-diazapentadecyl)oxy)phenyl)propyl (S)-1-((S)-2-(3,4,5-trimethoxyphenyl)butanoyl)piperidine-2-carboxylate] was tested, and the “acetylation at K18, K23, and K27 by quantitative MS” value (H3.3-FKBP12^F36V) was “substantial increases”, the “acetylation at other identified lysines on H3.3 by quantitative MS” value (H3.3-FKBP12^F36V) was “no acetylation” and the “RelA acetylation at higher AceTAG-1 concentrations” value ([1]; FIG. 6A) was “apparent acetylation autoinhibition”. The “RelA acetylation at neighboring K314/315” value ([1]; FIG. 9D) was “minimal effects” and the “RelA acetylation at K310” value ([1]; indicated doses, 2 hr, FIG. 6A) was “dose-dependent acetylation”.
